One test has as its system SiHa. The test is described as follows: cells. The settings on record: Homo sapiens, 48 h.
A further test deals with U-251. The test is described as follows: cells. The settings on record: Homo sapiens, U-251, 48 h.
In test [1] the test system is HCT-116. As to the kind of experiment: cells. The settings on record: Homo sapiens, HCT-116, 48 h.
Description: Antiproliferative activity against human HCT-116 cells assessed as reduction in cell viability incubated for 48 hrs by sulphorhodamine B assay
Another test relates to NCI-H460. As to the kind of experiment: cells. Particulars: Homo sapiens, NCI-H460, 48 h.
A further test concerns HeLa. The test is described as follows: cells. Particulars: Homo sapiens, 48 h.
Test [2] relates to HCT-116. As to the kind of experiment: cells. The settings on record: Homo sapiens, HCT-116, 48 h. The source holds these as a separate data set.
Description: Antiproliferative activity against human HCT-116 p53-/- cells assessed as reduction in cell viability incubated for 48 hrs by sulphorhodamine B assay
A further test deals with MDA-MB-231. The test is described as follows: cells. Particulars: Homo sapiens, MDA-MB-231, 48 h.
A further test has as its system MCF7. As to the kind of experiment: cells. The settings on record: Homo sapiens, MCF7, 48 h.
A further test concerns Jurkat. The test is described as follows: cells. The settings on record: Homo sapiens, 48 h.
For a further test, the system named is Calf thymus DNA. The test is described as follows: Binding affinity to calf thymus DNA assessed as hypochromic effect at 3*10^-5 mol/L by double beam UV-Vis spectroscopic analysis. Format: nucleic-acid assay. The settings on record: Bos taurus.
The next test relates to HEK293. As to the kind of experiment: Antiproliferative activity against human HEK293 cells assessed as reduction in cell viability incubated for 48 hrs by sulphorhodamine B assay. Format: functional. (The SRB assay estimates cell density from bound dye.)
The next test relates to A549. As to the kind of experiment: Antiproliferative activity against human A549 cells assessed as reduction in cell viability incubated for 48 hrs by sulphorhodamine B assay. Type of test: functional.

Description for HeLa: Antiproliferative activity against human HeLa cells assessed as reduction in cell viability incubated for 48 hrs by sulphorhodamine B assay
Description for Jurkat: Antiproliferative activity against human Jurkat cells assessed as reduction in cell viability incubated for 48 hrs by sulphorhodamine B assay
Description for MCF7: Antiproliferative activity against human MCF7 cells assessed as reduction in cell viability incubated for 48 hrs by sulphorhodamine B assay
Description for MDA-MB-231: Antiproliferative activity against human MDA-MB-231 cells assessed as reduction in cell viability incubated for 48 hrs by sulphorhodamine B assay
Description for NCI-H460: Antiproliferative activity against human NCI-H460 cells assessed as reduction in cell viability incubated for 48 hrs by sulphorhodamine B assay
Description for SiHa: Antiproliferative activity against human SiHa cells assessed as reduction in cell viability incubated for 48 hrs by sulphorhodamine B assay
Description for U-251: Antiproliferative activity against human U-251 cells assessed as reduction in cell viability incubated for 48 hrs by sulphorhodamine B assay

For orientation: GI50 means the concentration that inhibits growth by half. Regarding `O=C1c2[nH]c3ccccc3c2C(=O)c2cnc3cc(Br)ccc3c21`, the GI50 is over 4 µM in the test with SiHa; 2 µM with U-251; 1.5 µM with HCT-116 [1]; 1.27 µM with NCI-H460; 0.21 µM with HeLa; 2.6 µM in the test with HCT-116 [2]. In addition, the GI50 in the test with MDA-MB-231 is 1 µM; with MCF7 it was 0.6 µM; with Jurkat, 1.5 µM.
As for `Nc1nc2cc(Cl)ccc2c2cc3[nH]c4ccccc4c3cc12`, the 50% growth inhibitory concentration (GI50) in the test with SiHa was 1.1 µM; with U-251 it was 1.2 µM; in the test with HCT-116 [1], 1 µM; in the test with NCI-H460 it was 1.05 µM; in the test on HeLa, 0.53 µM; in the test with MDA-MB-231 it was 0.9 µM. Further, the GI50 in the test with MCF7 stood at 0.95 µM. Further, the Activity with Calf thymus DNA came to 38%.
In the case of `O=C1c2[nH]c3ccccc3c2C(=O)c2cnc3cc(Cl)ccc3c21`, the GI50 in the test on SiHa turned out to be 1.6 µM; in the test with U-251 it was 2.83 µM; in the test with HCT-116 [1], 1.5 µM; in the test with NCI-H460, 1.4 µM; in the test on HeLa it was 0.07 µM; in the test with HCT-116 [2], 2.6 µM. In addition, the concentration for 50% growth inhibition (GI50) with MDA-MB-231 was determined as 0.36 µM; in the test on MCF7 it was 0.53 µM; in the test with Jurkat it was 3.55 µM.
As to `Nc1nc2ccccc2c2cc3[nH]c4ccccc4c3cc12`, the GI50 in the test on SiHa turned out to be 1.05 µM; in the test with U-251 it was 1.05 µM; in the test on HCT-116 [1] it was 1 µM; in the test with NCI-H460, 1 µM; with HeLa it was 0.8 µM; in the test with MDA-MB-231, 1 µM. For the same molecule, halving of growth in the test on MCF7 (GI50) required 1 µM.
With `c1ccc2c(c1)ccc1cc3c(cc12)[nH]c1ccccc13`, the GI50 was over 4 µM in the test on SiHa; over 4 µM in the test on U-251; over 4 µM in the test with HEK293; over 4 µM in the test with A549; over 50 µM in the test on HCT-116 [1]; over 50 µM in the test on NCI-H460. In addition, the 50% growth inhibitory concentration (GI50) with HeLa, in the test with MDA-MB-231, in the test on MCF7 and in the test on Jurkat was over 4 µM throughout.
Take `COc1cc2ncc3c(c2cc1OC)C(=O)c1[nH]c2ccccc2c1C3=O`: the GI50 in the test with SiHa, with U-251, with HCT-116 [1], in the test on NCI-H460, with HeLa and in the test with HCT-116 [2] was over 4 µM in each case. The 50% growth inhibitory concentration (GI50) was over 4 µM in the test on MDA-MB-231, 0.36 µM in the test on MCF7 and over 4 µM with Jurkat.
As to `O=C1c2cnc3cccc(Cl)c3c2C(=O)c2[nH]c3ccccc3c21`, the GI50 with SiHa is over 4 µM; with U-251 it was over 4 µM; in the test on HCT-116 [1] it was 3.5 µM; in the test on NCI-H460, over 4 µM; in the test with HeLa it was over 4 µM; with HCT-116 [2], over 4 µM. The concentration for 50% growth inhibition (GI50) was over 4 µM in the test on MDA-MB-231, 0.8 µM in the test on MCF7 and over 4 µM in the test with Jurkat.
For the molecule `COc1cccc2c3c(cnc12)C(=O)c1c([nH]c2ccccc12)C3=O`, the GI50 is over 4 µM with SiHa; 1.83 µM in the test on U-251; 0.33 µM with HCT-116 [1]; over 4 µM with NCI-H460; 0.39 µM with HeLa; over 4 µM in the test with HCT-116 [2]. The values for the GI50 in the test with MDA-MB-231, in the test with MCF7 and in the test on Jurkat were 0.31 µM, 0.6 µM and over 4 µM, respectively.
On to `O=C1c2cnc3c(Cl)cc(Cl)cc3c2C(=O)c2[nH]c3ccccc3c21`, for which the 50% growth inhibitory concentration (GI50) with SiHa is 1.8 µM; with U-251 it was 1.5 µM; in the test with HCT-116 [1], 1.2 µM; in the test on NCI-H460 it was 0.73 µM; in the test with HeLa, 0.5 µM; in the test with HCT-116 [2], 2 µM. Besides, the results for the 50% growth inhibitory concentration (GI50) with MDA-MB-231, in the test on MCF7 and in the test on Jurkat were 0.2 µM, 0.5 µM and 2.6 µM, respectively.
As to `COc1ccc2ncc3c(c2c1)C(=O)c1[nH]c2ccccc2c1C3=O`, the GI50 in the test on SiHa is over 4 µM; in the test with U-251, over 4 µM; in the test on HCT-116 [1] it was 0.63 µM; in the test on NCI-H460, over 4 µM; in the test with HeLa it was over 4 µM; in the test on HCT-116 [2], over 4 µM. Also, the GI50 in the test on MDA-MB-231, with MCF7 and in the test on Jurkat was over 4 µM in each case.
With `O=C1c2[nH]c3ccccc3c2C(=O)c2cnc3ccc(Cl)cc3c21`, the GI50 in the test on SiHa turned out to be 1.67 µM; with U-251 it was 0.5 µM; in the test on HCT-116 [1] it was 0.42 µM; in the test with NCI-H460, 0.7 µM; in the test with HeLa, 0.5 µM; in the test on HCT-116 [2] it was 1.5 µM. Also, the 50% growth inhibitory concentration (GI50) in the test on MDA-MB-231 turned out to be 0.17 µM; with MCF7 it was 0.35 µM; in the test with Jurkat it was 1.4 µM.
On to `O=C1c2[nH]c3ccccc3c2C(=O)c2cnc3ccc(Br)cc3c21`, for which the 50% growth inhibitory concentration (GI50) with SiHa is 1.4 µM; with U-251 it was 0.6 µM; in the test on HCT-116 [1] it was 0.7 µM; with NCI-H460 it was 1.1 µM; in the test with HeLa, 0.29 µM; in the test on HCT-116 [2], 1.13 µM. Moreover, the GI50 in the test with MDA-MB-231 came out at 0.27 µM; with MCF7, 0.22 µM; with Jurkat, 1.5 µM.
Take `c1ccc2c(c1)ncc1cc3[nH]c4ccccc4c3cc12`: the 50% growth inhibitory concentration (GI50) was over 4 µM in the test on SiHa; over 4 µM in the test with U-251; over 4 µM in the test with HEK293; over 4 µM in the test with A549; over 50 µM in the test on HCT-116 [1]; 10 µM in the test with NCI-H460. Besides, the GI50 in the test on HeLa is 1.4 µM; in the test with MDA-MB-231, over 4 µM; in the test with MCF7 it was over 4 µM; in the test with Jurkat it was over 4 µM.
Regarding `Nc1nc2ccccc2c2cc3c(cc12)[nH]c1ccccc13`, the GI50 in the test on SiHa amounted to 1.3 µM; with U-251 it was 0.65 µM; in the test on HCT-116 [1], 1.05 µM; with NCI-H460, 1.05 µM; in the test on HeLa, 1.4 µM; with MDA-MB-231, 1.1 µM. This molecule also showed a GI50 with MCF7 of 1 µM.
As to `O=C1c2[nH]c3ccccc3c2C(=O)c2cnc3cc(F)c(Cl)cc3c21`, the 50% growth inhibitory concentration (GI50) with SiHa is over 4 µM; with U-251 it was over 4 µM; in the test with HCT-116 [1] it was over 4 µM; in the test with NCI-H460, over 4 µM; in the test on HeLa, 2 µM; in the test with HCT-116 [2] it was over 4 µM. Further, the concentration for 50% growth inhibition (GI50) with MDA-MB-231 is over 4 µM; in the test with MCF7 it was 1.35 µM; with Jurkat it was over 4 µM.
With `O=C1c2[nH]c3ccccc3c2C(=O)c2cnc3cc(Cl)c(Cl)cc3c21`, the GI50 in the test on SiHa is over 4 µM; with U-251, over 4 µM; in the test with HCT-116 [1] it was over 4 µM; in the test on NCI-H460, over 4 µM; in the test on HeLa, 1.8 µM; in the test on HCT-116 [2], over 4 µM. Besides, the values for the concentration for 50% growth inhibition (GI50) in the test with MDA-MB-231, in the test on MCF7 and in the test with Jurkat were 1.8 µM, over 4 µM and over 4 µM, respectively.
On to `CC[C@@]1(O)C(=O)OCc2c1cc1n(c2=O)Cc2cc3ccccc3nc2-1` [CAMPTOTHECIN], for which the GI50 with SiHa stood at 0.55 µM; in the test on U-251, 0.01 µM; with HCT-116 [1], 0.05 µM; with NCI-H460, 0.0057 µM; in the test with HeLa, 0.19 µM; in the test with HCT-116 [2], 0.195 µM. The 50% growth inhibitory concentration (GI50) was 0.4 µM with MDA-MB-231, 0.06 µM with MCF7 and 0.06 µM in the test on Jurkat.
As to `Cc1c2cnc3cc(F)ccc3c2cc2[nH]c3ccccc3c12`, the 50% growth inhibitory concentration (GI50) in the test with SiHa is over 4 µM; in the test on U-251, over 4 µM; in the test with HEK293 it was over 4 µM; in the test with A549 it was over 4 µM; in the test on HCT-116 [1] it was 30 µM; with NCI-H460, 0.04 µM. The GI50 with HeLa was 0.05 µM; in the test on MDA-MB-231, over 4 µM; in the test with MCF7, 0.27 µM; in the test with Jurkat, over 4 µM.
`Clc1ccc2c(c1)ncc1cc3c(cc12)[nH]c1ccccc13`: the 50% growth inhibitory concentration (GI50) in the test with SiHa is over 4 µM; in the test with U-251, over 4 µM; in the test with HEK293, over 4 µM; in the test on A549 it was over 4 µM; in the test on HCT-116 [1] it was 28 µM; with NCI-H460 it was 10 µM. Further, the concentration for 50% growth inhibition (GI50) was 0.43 µM in the test with HeLa, over 4 µM in the test on MDA-MB-231, over 4 µM with MCF7 and over 4 µM in the test on Jurkat.
On to `Nc1nc2cc(F)ccc2c2cc3[nH]c4ccccc4c3cc12`, for which the GI50 came out at 1.35 µM in the test with SiHa; 1.2 µM in the test on U-251; 1.2 µM with HCT-116 [1]; 0.14 µM with NCI-H460; 0.01 µM in the test on HeLa; 1.25 µM in the test on MDA-MB-231. Besides, the GI50 in the test with MCF7 was 0.13 µM.
With `O=C1c2[nH]c3ccccc3c2C(=O)c2cnc3cc(F)c(Br)cc3c21`, the GI50 was over 4 µM with SiHa; over 4 µM in the test on U-251; over 4 µM in the test on HCT-116 [1]; 2.25 µM in the test on NCI-H460; 0.27 µM in the test with HeLa; over 4 µM in the test with HCT-116 [2]. Further, the concentration for 50% growth inhibition (GI50) is 0.4 µM in the test with MDA-MB-231, 0.66 µM with MCF7 and over 4 µM in the test with Jurkat.
For the molecule `O=C1c2cnc3c(Cl)cccc3c2C(=O)c2[nH]c3ccccc3c21`, the GI50 with SiHa, in the test on U-251, in the test with HCT-116 [1], in the test on NCI-H460, with HeLa and in the test with HCT-116 [2] was over 4 µM throughout. Further, the GI50 in the test with MDA-MB-231, in the test with MCF7 and in the test on Jurkat was over 4 µM each time.
As for `O=C1c2[nH]c3ccccc3c2C(=O)c2cnc3cc4c(cc3c21)OCO4`, the 50% growth inhibitory concentration (GI50) in the test with SiHa, with U-251, in the test on HCT-116 [1], in the test with NCI-H460, in the test with HeLa and in the test on HCT-116 [2] was over 4 µM each time. For the same molecule, the GI50 was over 4 µM in the test with MDA-MB-231, 0.11 µM in the test with MCF7 and over 4 µM with Jurkat.

The record behind these values is ChEMBL document CHEMBL4706477, “Synthesis and Biological Evaluation of Calothrixins B and their Deoxygenated Analogues” (J Med Chem, 2018).
